{"source": "patent US20060035881A1", "about": "“Use of targeted oxidative therapeutic formulation in endodontic treatment” (priority 2004, published 2006)", "origin": "cited, not measured here", "key": {"[1]": {"tested_on": "peroxide-sensitive E. coli", "details": "infused into the blood of rabbits infected with peroxide-sensitive E. coli"}, "[2]": {"tested_on": "E. coli", "details": "increasing concentration of peroxide in rabbit or human blood containing E. coli"}}, "data": [{"smiles": "OO", "note": "[hydrogen peroxide, Hydrogen peroxide]", "values": [{"measurement": "bactericidal effect in vivo", "setting": "[1]", "value": "no bactericidal effect"}, {"measurement": "direct bactericidal activity ex vivo", "setting": "[2]", "value": "no evidence of direct bactericidal activity"}]}]}
